{"source": "patent US5475022A", "about": "“Phenyl or heteroaryl and tetrahydronaphthyl substituted diene compounds having retinoid like biological activity” (Allergan, Inc., priority 1993, dated 1995)", "key": {"[1]": {"test_system": "ornithine decarboxylase (ODC)", "assay": "inhibition of TPA induction of ornithine decarboxylase (ODC)", "assay_type": "cell-based", "details": "read-out: % ODC Inhibition at 1.0 μM concentration", "description": "The retinoid-like activity of these compounds is confirmed through the classic measure of retinoic acid activity involving the effects of retinoic acid on ornithine decarboxylase. The original work on the correlation between retinoic acid and decrease in cell proliferation was done by Verma & Boutwell, Cancer Research, 1977, 37,2196-2201. That reference discloses that ornithine decarboxylase (ODC) activity increased precedent to polyamine biosynthesis. It has been established elsewhere that increases in polyamine synthesis can be correlated or associated with cellular proliferation. Thus, if ODC activity could be inhibited, cell hyperproliferation could be modulated. Although all causes for ODC activity increases are unknown, it is known that 12-0-tetradecanoylphorbol-13-acetate (TPA) induces ODC activity."}, "[2]": {"test_system": "ornithine decarboxylase (ODC)", "details": "literature statement; cited from earlier work"}}, "note": "Where two headings read alike, the source gives them in different places."}
{"compound": "COC(=O)c1ccoc1/C=C/C=C(\\C)c1cc2c(cc1C)C(C)(C)CCC2(C)C", "note": "[Compound 1, Methyl 2-[4-methyl-4-(3,5,5,8,8-pentamethyl-5,6,7,8-tetrahydronaphthalene)-2-yl-1E,3E-butadien-1-yl]-furan-3-carboxylate]", "values": [{"measurement": "inhibition at 1 µM", "setting": "[1]; TPA-induced ODC activity", "value": 37, "unit": "%"}]}
{"compound": "COC(=O)c1ccoc1/C=C/C=C(/C)c1cc2c(cc1C)C(C)(C)CCC2(C)C", "note": "[Compound 2, Methyl 2-[4-methyl-4-(3,5,5,8,8-pentamethyl-5,6,7,8-tetrahydronaphthalene)-2-yl-1E,3Z-butadien-1-yl]-furan-3-carboxylate]", "values": [{"measurement": "inhibition at 1 µM", "setting": "[1]; TPA-induced ODC activity", "value": 36, "unit": "%"}]}
{"compound": "COC(=O)c1ccccc1/C=C/C=C(\\C)c1ccc2c(c1)C(C)(C)CCC2(C)C", "note": "[Compound 6, Methyl 2-[4-methyl-4-(5,5,8,8-tetramethyl-5,6,7,8-tetrahydronaphthalene)-2-yl-1E,3E-butadien-1-yl]benzoate]", "values": [{"measurement": "inhibition at 1 µM", "setting": "[1]; value determined by linear regression of data collected at 30, 100, 300 nanomolar concentrations", "value": 100, "unit": "%"}]}
{"compound": "C/C(=C\\C=C\\c1ccccc1C(=O)O)c1cc2c(cc1C)C(C)(C)CCC2(C)C", "note": "[Compound 7, 2-[4-Methyl-4-(3,5,5,8,8-pentamethyl-5,6,7,8-tetrahydronaphthalene)-2-yl-1E,3E-butadien-1-yl]benzoic acid]", "values": [{"measurement": "inhibition at 1 µM", "setting": "[1]; TPA-induced ODC activity", "value": 79, "unit": "%"}]}
{"compound": "C/C(=C/C=C/c1ccccc1C(=O)O)c1cc2c(cc1C)C(C)(C)CCC2(C)C", "note": "[Compound 8, 2-[4-Methyl4-(3,5,5,8,8-pentamethyl-5,6,7,8-tetrahydronaphthalene)-2-yl-1E,3Z-butadien-1-yl]benzoic acid]", "values": [{"measurement": "inhibition at 1 µM", "setting": "[1]; TPA-induced ODC activity", "value": 75, "unit": "%"}]}
{"compound": "C/C(=C/C=C/c1occc1C(=O)O)c1cc2c(cc1C)C(C)(C)CCC2(C)C", "note": "[Compound 9, 2-[4-Methyl-4-(3,5,5,8,8-pentamethyl-5,6,7,8-tetrahydronaphthalene)-2-yl-1E,3Z-butadien-1-yl]-furan-3-carboxylic acid]", "values": [{"measurement": "inhibition at 1 µM", "setting": "[1]; TPA-induced ODC activity", "value": 56, "unit": "%"}]}
{"compound": "COC(=O)c1ccoc1/C=C/C=C(\\C)c1ccc2c(c1)C(C)(C)CCC2(C)C", "note": "[Compound 11, Methyl 2-[4-methyl-4-(5,5,8,8,-tetramethyl5,6,7,8,-tetrahydronaphthalen)-2-yl-1E,3E-butadien-1-yl] furan 3-carboxylate]", "values": [{"measurement": "inhibition at 1 µM", "setting": "[1]; TPA-induced ODC activity", "value": 26, "unit": "%"}]}
{"compound": "COC(=O)c1ccoc1/C=C/C=C(/C)c1ccc2c(c1)C(C)(C)CCC2(C)C", "note": "[Compound 12, Methyl 2-[4-methyl-4-(5,5,8,8, -tetramethyl-5,6,7,8, -tetrahydronaphthalen)2-yl-1E, 3Z-butadien-1-yl] furan 3-carboxylate]", "values": [{"measurement": "inhibition at 1 µM", "setting": "[1]; TPA-induced ODC activity", "value": 42, "unit": "%"}]}
{"compound": "C/C(=C\\C=C\\c1occc1C(=O)O)c1ccc2c(c1)C(C)(C)CCC2(C)C", "note": "[Compound 13, 2-[4-Methyl-4-(5,5,8,8,-tetramethyl-5,6,7,8,-tetrahydronaphthalen)-2-yl-1E,3E-butadien-1-yl] furan 3-carboxylic acid]", "values": [{"measurement": "inhibition at 1 µM", "setting": "[1]; TPA-induced ODC activity", "value": 60, "unit": "%"}]}
{"compound": "C/C(=C/C=C/c1occc1C(=O)O)c1ccc2c(c1)C(C)(C)CCC2(C)C", "note": "[Compound 14, 2-[4-Methyl-4-(5,5,8,8,-tetramethyl-5,6,7,8-tetrahydronaphthalen)-2-yl-1E,3Z-butadien-1-yl] furan 3-carboxylic acid]", "values": [{"measurement": "inhibition at 1 µM", "setting": "[1]; TPA-induced ODC activity", "value": 72, "unit": "%"}]}
{"compound": "C/C(=C\\C=C\\c1ccsc1C(=O)O)c1cc2c(cc1C)C(C)(C)CCC2(C)C", "note": "[Compound 17, 3-[4-Methyl-4-(3,5,5,8,8,-pentamethyl-5,6,7,8,-tetrahydronaphthalen)-2-yl-1E,3 E-butadien-1-yl]thiophene 2-carboxylic acid]", "values": [{"measurement": "inhibition at 1 µM", "setting": "[1]; TPA-induced ODC activity", "value": 79, "unit": "%"}]}
{"compound": "CCOC(=O)c1occc1/C=C\\C=C(/C)c1cc2c(cc1C)C(C)(C)CCC2(C)C", "note": "[Compound 19, Ethyl 3-[4-methyl-4-(3,5,5,8,8-pentamethyl-5,6,7,8-tetrahydronaphthalene)-2-yl-1Z, 3E-butadiene-1-yl]-2-furanoate]", "values": [{"measurement": "inhibition at 1 µM", "setting": "[1]; TPA-induced ODC activity", "value": 73, "unit": "%"}]}
{"compound": "COC(=O)c1ccccc1/C=C/C=C(\\C)c1cc2c(cc1C)C(C)(C)CCC2(C)C", "note": "[Compound 24, Methyl 2-[4-methyl-4-(3,5,5,8,8-pentametyl-5,6,7,8-tetrahydronaphthalene)-2-yl-1E,3E-butadien-1-yl]benzoate]", "values": [{"measurement": "inhibition at 1 µM", "setting": "[1]; TPA-induced ODC activity", "value": 88, "unit": "%"}]}
{"compound": "CC1=C(/C=C/C(C)=C/C=C/C(C)=C/C(=O)O)C(C)(C)CCC1", "note": "[Retinoic acid]", "values": [{"measurement": "inhibition of induction of ODC activity by TPA", "setting": "[2]", "value": "inhibits this induction of ODC activity by TPA"}]}
